Tests used:
GFAP+ astrocytes = experiment: Morphology and fractal analysis of GFAP+ cells in the hippocampus (Example 2); type: in vivo, C57BL/6 male mice
Protocol: For the IR analysis, for each mouse, three digital images were randomly selected at 40× magnifications in the areas of interest (hippocampus and frontal cortex) (n=5-6/condition). The images were taken using a digital camera attached to a light microscope (Micrometrics, MilesCo Scientific, Princeton, Minn., USA) connected to a camera operated by a commercial software (Micrometrics SE Premium). The determination of the area of the immunolabeling was calculated delimiting the IR areas using the ImageJ software (National Institute of Health, Bethesda, […]., USA). For all analyses, GFAP^+ astrocytes were selected randomly from the frontal cortex and the CA1, CA3 and dentate gyrus regions of the hippocampus and quantified. Using a digital camera on an inverted microscope, black and white images of GFAP^+ astrocytes were obtained and processed with Image J software. Using a 20× objective, cells were chosen randomly in the same area selected for immunostaining, and the binary overlay of a cell was created by thresholding. For all images, a threshold value was established at the level at which the binary overlay entirely enclosed the cell body and projections. All pixels above the threshold value were considered as belonging to the cell images. Finally, the binary silhouette of the whole cell was reduced to its one-pixel outline for estimation of the fractal dimensions with the FracLac 2.5 ImageJ plug-in (Karperien et al., 2013; Karperien and Jelinek, 2015)
Fractal analysis was done on binary images by means of the dilation method (Schaffner and Ghesquiere, 2001). The slope of the regression line (S) is related to the fractal dimension (D) by D=1−S. Each pixel in the cell outline was replaced with a disk of a diameter fluctuating from 3-61 pixels and the area of the widened outline divided by the diameter of structuring element was plotted against this diameter on a log-log scale.
the area of the cell body that is calculated as the two-dimensional cross-sectional area contained within the boundary of the cell body.
The area of the convex polygon formed by connecting the tips of the longest astrocytic processes (convex hull area). Convex hull values indicate the size of the branching field of the astrocyte. The amount of physical space is defined in terms of convex-hull volume, surface area, area, and or perimeter.
Measures heterogeneity and complements fractal dimension analysis in describing structural complexity (Karperien et al., 2013; Karperien and Jelinek, 2015; Schaffner and Ghesquiere, 2001).

[1] = tested on: mice subjected to restraint stress; experiment: Elevated plus maze after restraint stress (Example 1, Experiment 1); type: in vivo, C57BL/6 mice; settings: RS mice, post-treatment with cotinine
Protocol: Mice were treated immediately after the 21 days of immobilization stress (6 h/day) until euthanasia. Mice (n=5-8/condition) received daily treatments with 1. PBS (phosphate buffer saline, pH 7.4) via intranasal (2×12 μl/nostril), 2. PBS via gavage (50 μl); 3. Cotinine dissolved in PBS via oral (gavage, (0.5 mg/kg; Cot 0.5); 4. Cotinine dissolved in PBS via intranasal (Cot IN, 10 mg/ml, 2×12 μl/nostril).
(§1) To induce chronic stress, the restraint stress paradigm was used as previously described. Mice are immobilized in 50 ml falcon plastic tubes that were attached to mouse cages. The immobilization proceeded during 6 h from 9:00 AM to 3:00 PM in absence of treatments. Tubes have holes in the opposite side of the tube to allow the animal breathing and urination. Mice were almost completely immobilized for 6 h/day for 21 days after which they were permitted freely to move, eat and drink.
Anxiety was assessed through the elevated plus maze (EPM). EPM is considered one of the best choices to test anxiolytic effects of drugs. This test is based on the observation that most of the time higher anxiety levels will diminish the time exploring new environments as a form to avoid danger (open arms).
To determine the level of anxiety, mice were tested in the EPM. […]

[2] = tested on: mice subjected to restraint stress; experiment: Porsolt test, oral co-treatment during restraint stress (Example 1, Experiment 2); type: in vivo, C57BL/6 mice; settings: RS mice, cotinine 5 mg/kg, KO, or mix, vs stressed vehicle
Protocol: Mice (n=5-8/condition) were treated via oral during and after restraint stress continuously until euthanasia.
Mice received daily treatments with
2. Cotinine dissolved in PBS via oral (gavage, (5 mg/kg; Cot 0.5)
3. Krill oil (KO) via oral (5 mg/ml in PBS, 50 μl) continuously from the beginning of the restraint stress until euthanasia.
as §1
This test is used to measure the antidepressant effects of drugs, and consists in placing each mouse in a transparent cylinder filled with water at room temperature (RT). After a brief period of strong activity, rodents adopt a characteristic immobile posture. The time mice spent immobile is a measure of depressive-like behavior. The immobility time will be recorded during a 15-min and a next day 5-min trial. The time spent by each mouse immobile will be recorded.

restrained C57BL/6 mice = settings: oral cotinine administered before and continuously to restrained C57BL/6 mice; cited from earlier work
[3] = cotinine-treated restrained mice

CN1C(=O)CC[C@H]1c1cccnc1 [Cotinine, (5S)-1-methyl-5-(3-pyridyl) pyrrolidin-2-one]
GFAP+ cell area across CA1, CA3 and DG (GFAP+ astrocytes; [3]): statistically indistinguishable from nonstressed controls | appearance of GFAP+ astrocytes in hippocampi and frontal cortices (GFAP+ astrocytes; [3]): large GFAP^+ cells with longer and more complex arborization | arbor area of astrocytes, DG (GFAP+ astrocytes; p<0.001 vs vehicle-treated restrained mice): greater astrocytic arborization than vehicle-treated, restrained mice | fractal dimension (FD) of astrocytes, DG (GFAP+ astrocytes; p<0.05): vehicle-treated, restrained mice had a significant reduction in FD of astrocytes in the DG when compared to cotinine-treated, restrained mice | lacunarity of astrocytes, DG (GFAP+ astrocytes; p<0.05): vehicle-treated, restrained mice had reduced lacunarity of astrocytes relative to both their cotinine-treated, stressed | arbor area of astrocytes, CA3 (GFAP+ astrocytes; p<0.05 vs non-stressed controls, p<0.01 vs vehicle-treated restrained): significantly more arbor area of astrocytes than non-stressed controls | arbor area of astrocytes, CA1 (GFAP+ astrocytes; p<0.05 vs non-stressed controls, p=0.075 vs vehicle-treated stressed): significantly more arbor area than the non-stressed controls | locomotor activity (distance traveled) in the EPM ([1]; Tukey p<0.01): reduced significantly the locomotor activity in the RS mice | rearing activity in the elevated plus maze ([1]; vs Ctrl non-restrained mice): did not show differences with Ctrl non-restrained mice | depressive-like behavior (freezing behavior) in the Porsolt test [2]: non-significant decrease in depressive-like behavior | depressive-like behavior induced by stress (restrained C57BL/6 mice): substantively decreased depressive-like behavior induced by stress
